Experimental data published in US20240024504A1, “SITE-SELECTIVE LYSINE ACETYLATION OF HUMAN IMMUNOGLOBULIN G AND IgG-RELATED PRODUCTS FOR IMMUNOTHERAPY” (The Chinese University of Hong Kong, priority 2022, published 2024).

Columns and labels:
IgG Fc = assay: Competition between reactive peptide (F1) and non-reactive peptide; type: biochemical, human; details: non-reactive peptide added to the reaction of F1 and IgG
Procedure: (FIG. 3A) The structures of peptides used in this work. FITC moiety was added at the N-termini of the peptides to MST analysis.

His-tagged human PD-L1 = biological target: T1, His-tagged human PD-L1 (Homo sapiens, UniProt Q9NZQ7); assay: Pull-down assay of modified atezolizumab on PD-L1 loaded Ni-NTA resins; type: binding; details: PD-L1 immobilized on Ni-NTA resins
T1 construct: purchased GenScript
T1 sequence (Q9NZQ7 19-290): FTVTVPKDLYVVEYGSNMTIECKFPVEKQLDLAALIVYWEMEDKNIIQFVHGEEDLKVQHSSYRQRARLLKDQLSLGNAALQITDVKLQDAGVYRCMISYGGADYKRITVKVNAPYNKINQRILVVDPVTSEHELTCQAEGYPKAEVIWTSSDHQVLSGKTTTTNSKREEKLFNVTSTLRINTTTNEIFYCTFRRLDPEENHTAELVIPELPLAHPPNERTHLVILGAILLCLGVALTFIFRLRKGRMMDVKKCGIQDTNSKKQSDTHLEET
Procedure: (FIG. 16A) A pull-down experiment in vitro. […] (FIG. 16B) FITC labeled PD-L1 was immobilized on Ni-NTA agarose resin through polyhistidine tag.
Ni-NTA agarose resins were resuspended and 20 μL resins were pipetted into a 1.5 mL tube. After washing with PBS-T buffer (phosphate buffered saline supplemented with 0.1% Tween-20), His-tagged human PD-L1 (200 nM) was immobilized on Ni-NTA resins in 100 μL buffer solution (20 mM imidazole, pH 7.4 PBS-T) at room temperature for 1 h with shaking. The binding solution was removed by centrifugation and the resins were washed three times with pH 7.4 PBS-T buffer. Then Atezo-TAMRA (100 nM) was incubated with the resins in 100 μL buffer solution (20 mM imidazole, pH 7.4 PBS-T) for 1 h with shaking. Next, the resins were washed three times with PBS-T and eluted by boiling the beads for 10 min in 2× sample loading buffer. The samples were analyzed by SDS-PAGE. As a negative control, same amount of polyclonal IgG was incubated with the PD-L1 loaded resins. For confocal microscopy, His-tagged human PD-L1 was firstly labelled by FITC.

[1] = test system: PD-L1 positive (PC12) cells; assay: Immunofluorescence of modified atezolizumab, confocal microscopy; type: cell-based; details: 150 nM, PBS pH 7.4, 37° C., 15 min
Procedure: FIG. 5A-5B Acetylation of therapeutic antibody and immunofluorescence. (FIG. 5A) Acetylation reaction monitored by SDS-PAGE and fluorescent scanning. Reaction condition: 4 μM antibodies, 24 μM F1, PBS buffer (pH 7.4), at 37° C. for 1 h. The reactions were quenched with 1% SDS and DBCO-TAMRA was added at room temperature for 1.5 h for SPAAC reaction before SDS-PAGE and in-gel fluorescent imaging. Lane M, molecular weight marker; lane 1, M-trastuzumab; lane 2, M-cetuximab; lane 3, M-daratumumab; […], reduced results of […]. […] Incubation conditions: Cells were incubated with modified antibodies (150 nM) in PBS buffer (pH 7.4) at 37° C. for 15 min before the fixation of cells.

binding to PD-L1 (pull-down) (His-tagged human PD-L1) | binding to PD-L1 (pull-down) (His-tagged human PD-L1; listed as acetylated atezolizumab) | Compound | effect on the acetylation reaction of F1 and IgG (IgG Fc) | binding to cells (immunofluorescence) [1]
 |  | CC(C)C[C@@H]1NC(=O)C(CCC(=O)O)NC(=O)CNC(=O)[C@H](CC(C)C)NC(=O)[C@H](Cc2c[nH]cn2)NC(=O)[C@H](Cc2c[nH]c3ccccc23)NC(=O)[C@H](C)NC(=O)[C@@H](NC(=O)[C@H](CC(=O)O)NC(=O)CCNC(=O)CNC(=S)Nc2ccc(-c3c4ccc(=O)cc-4oc4cc(O)ccc34)c(C(=O)O)c2)CSSC[C@@H](C(=O)N[C@H](C(N)=O)[C@@H](C)O)NC(=O)[C@H](Cc2c[nH]c3ccccc23)NC(=O)[C@H](C(C)C)NC1=O (stereo partly shown) [f-F0] | abolished the acetylation reaction | 
reserved the binding ability to PD-L1 | could still bind its ligand | M-Atezo: atezolizumab azidoacetylated at Lys248 of the Fc by F1 (DBCO-TAMRA tagged for detection) |  | maintained their binding with PD-L1 positive (PC12) cells
